Data published in ChEMBL document CHEMBL4811307, “Design, synthesis and biological evaluation of dual Bcl-2/Mcl-1 inhibitors bearing 2-(1H-indol-4-yl)benzoic acid scaffold” (Bioorg Med Chem Lett, 2021).

Columns and labels:
Bcl-2-like protein 1 = Bcl-2-like protein 1 (Homo sapiens, UniProt Q07817); test: Binding affinity to Bc1-xL (unknown origin) by fluorescence polarization competition assay
[1] = target: Induced myeloid leukemia cell differentiation protein Mcl-1 (Homo sapiens, UniProt Q07820); test: Binding affinity to Mc1-1 (unknown origin) by fluorescence polarization competition assay
Induced myeloid leukemia cell differentiation protein Mcl-1, sequence (Q07820 whole entry): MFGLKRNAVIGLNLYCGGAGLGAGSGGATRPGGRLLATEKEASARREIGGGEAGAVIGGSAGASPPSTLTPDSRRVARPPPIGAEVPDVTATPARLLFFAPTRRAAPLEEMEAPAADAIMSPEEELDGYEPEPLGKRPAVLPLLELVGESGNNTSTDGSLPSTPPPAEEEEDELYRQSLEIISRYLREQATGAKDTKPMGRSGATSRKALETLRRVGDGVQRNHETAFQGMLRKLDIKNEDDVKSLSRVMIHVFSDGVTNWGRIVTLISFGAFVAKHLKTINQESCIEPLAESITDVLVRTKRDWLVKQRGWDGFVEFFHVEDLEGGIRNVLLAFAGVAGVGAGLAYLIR

Bcl-2-like protein 1, sequence (Q07817 whole entry): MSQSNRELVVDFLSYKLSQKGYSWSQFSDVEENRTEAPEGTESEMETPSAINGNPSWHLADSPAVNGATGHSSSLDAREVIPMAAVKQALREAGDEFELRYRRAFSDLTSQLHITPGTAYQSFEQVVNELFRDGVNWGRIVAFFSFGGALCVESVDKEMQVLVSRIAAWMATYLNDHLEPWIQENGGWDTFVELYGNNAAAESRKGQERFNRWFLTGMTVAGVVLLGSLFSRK

SMILES | Ki (Bcl-2-like protein 1; read-out: Ki) | Ki [1] | Ki (Bcl-2-like protein 1)
Cc1ccc(-c2cn(Cc3cccc4ccccc34)c3cccc(-c4ccccc4C(=O)O)c23)cc1 | > 200000 nM | 230 nM | –
COc1cccc(-c2cn(Cc3cccc4ccccc34)c3cccc(-c4ccccc4C(=O)O)c23)c1 | > 200000 nM | 290 nM | –
CCc1ccccc1-c1cn(CCOc2cccc3ccccc23)c2cccc(-c3ccccc3C(=O)O)c12 | > 200000 nM | 270 nM | –
COc1ccccc1-c1cn(CCOc2cccc3ccccc23)c2cccc(-c3ccccc3C(=O)O)c12 | > 200000 nM | 170 nM | –
Cc1cccc(-c2cn(CCOc3cccc4ccccc34)c3cccc(-c4ccccc4C(=O)O)c23)c1C | > 200000 nM | 710 nM | –
O=C(O)c1ccccc1-c1cccc2c1ccn2CCCOc1cccc2ccccc12 | – | 1190 nM | Not Active
O=C(O)c1ccc(Cl)cc1-c1cccc2c1ccn2CCCOc1cccc2ccccc12 | 2300 nM | 220 nM | –
Cc1cccc(-c2cn(CCCOc3cccc4ccccc34)c3cccc(-c4ccccc4C(=O)O)c23)c1 | > 200000 nM | 1330 nM | –
Cc1ccccc1-c1cn(CCOc2cccc3ccccc23)c2cccc(-c3ccccc3C(=O)O)c12 | > 200000 nM | 170 nM | –
Cc1cccc(-c2cn(Cc3cccc4ccccc34)c3cccc(-c4ccccc4C(=O)O)c23)c1 | > 200000 nM | 960 nM | –
O=C(O)c1ccccc1-c1cccc2c1c(-c1cccc(Cl)c1)cn2CCOc1cccc2ccccc12 | 2300 nM | 360 nM | –
Cc1ccccc1-c1cn(Cc2cccc3ccccc23)c2cccc(-c3ccccc3C(=O)O)c12 | > 200000 nM | 70 nM | –
Cc1cccc(-c2cn(CCOc3cccc4ccccc34)c3cccc(-c4ccccc4C(=O)O)c23)c1 | > 200000 nM | 920 nM | –
O=C(O)c1ccccc1-c1cccc2c1c(-c1ccccc1)cn2Cc1cccc2ccccc12 | > 200000 nM | 120 nM | –
O=C(O)c1ccccc1-c1cccc2c1c(-c1cccc(Cl)c1)cn2Cc1cccc2ccccc12 | > 200000 nM | 450 nM | –
COc1ccccc1-c1cn(Cc2cccc3ccccc23)c2cccc(-c3ccccc3C(=O)O)c12 | > 200000 nM | 270 nM | –
O=C(O)c1ccccc1-c1cccc2c1c(-c1cccc(C(F)(F)F)c1)cn2CCOc1cccc2ccccc12 | 6100 nM | 30 nM | –
CC(C)c1ccccc1-c1cn(CCOc2cccc3ccccc23)c2cccc(-c3ccccc3C(=O)O)c12 | > 200000 nM | 170 nM | –
O=C(O)c1ccccc1-c1cccc2c1c(-c1cccc(C(F)(F)F)c1)cn2Cc1cccc2ccccc12 | > 200000 nM | 190 nM | –
Cc1ccc(-c2cn(CCOc3cccc4ccccc34)c3cccc(-c4ccccc4C(=O)O)c23)cc1 | > 200000 nM | 250 nM | –
O=C(O)c1ccccc1-c1cccc2c1c(-c1cccc(C(F)(F)F)c1)cn2CCCOc1cccc2ccccc12 | 3100 nM | 280 nM | –
Cc1cc2c(C(C)C)c(O)c(O)c(C=O)c2c(O)c1-c1c(C)cc2c(C(C)C)c(O)c(O)c(C=O)c2c1O [GOSSYPOL] | 610 nM | – | –
CC1(C)CCC(CN2CCN(c3ccc(C(=O)NS(=O)(=O)c4ccc(NCC5CCOCC5)c([N+](=O)[O-])c4)c(Oc4cnc5[nH]ccc5c4)c3)CC2)=C(c2ccc(Cl)cc2)C1 [VENETOCLAX] | – | > 200000 nM | –
